Consider 6 compounds from paper PMC11237012, “Synthesis and preliminary evaluation of novel PET probes for GSK-3 imaging” (Scientific Reports, 2024).

Several values for one entry are separate records, joined by “and”; a condition that tells them apart may be missing. Equal entries are not always repeated. Structures can show the parent of a compound that is named as a salt.

Series [1] can be described thus: In vitro parallel artificial membrane permeability assay (PAMPA), blood–brain barrier permeability. Particulars: for Papp: PAMPA. From the text: To evaluate the blood–brain barrier permeability and binding affinity of the developed PET probes[^18F]2 and [^18F]6, their respective nonradioactive versions were used. For blood–brain barrier permeability evaluation, we applied in vitro parallel artificial membrane permeability assay (PAMPA) and evaluated binding affinity via an inhibition assay to determine the IC50 value, as described in method section. We further measured the stability of both PET probes, [^18F]2 and [^18F]6, using radio thin layer chromatography (radio-TLC) over time, as also described in the method section. […] The blood–brain permeability was expressed through the permeability coefficient, P (10^–6 cm/s) and -logPe.
In general terms: In PAMPA a lipid-coated filter parts donor from acceptor wells.

The next series concerns the target GSK-3β. On the set-up: method as in PMID 33840834, PMID 35295885, PMID 34423266. Particulars: cited from earlier work.
On the set-up of series [2]: method as in PMID 33840834, PMID 35295885, PMID 34423266. Particulars: 2 min post injection; Sprague Dawley rats; cited from earlier work.
Series [3] in a line: Radiochemical stability in mouse serum (rad-TLC). Particulars: 37 °C. The class given is in vitro ADME. On the procedure: (§1) The stability of PET probes [^18F]2 and [^18F]6 was measured in isotonic NaCl solution (0.9% NaCl) and mouse and human serums at 37 °C for up to 120 min by rad-TLC at 0 min, 30 min, 60 min and 120 min post incubation. The results obtained are presented in Fig. 5 and SI-Figs. S10–S15, SI-Table S1. […] The plausible explanation of the instability of [^18F]6 could be attributed to the covalent interaction of [^18F]6’s SO2F group with primary amines of amino acid residues present in the protein rich mouse and human serums. In fact, in an unrelated study, Zhao et al. reported formation of sulfonamide bond between sulfuryl fluoride and primary amine of conserved lysine residues of different kinases. […] Based on 2’s favorable blood–brain barrier permeability, nanomolar binding affinity and PET probe [^18F]2’s excellent stability in both mouse and human serums, further in vivo evaluations were performed only with PET probe [^18F]2.
(§2) Stability of [^18F]2 and [^18F]6 was assessed in isotonic NaCl solution and human and mouse serums. To perform this stability assay, 100 µL of [^18F]2 (~ 37.0 MBq) or 100 µL of [^18F]6 (~ 37.0 MBq) as in final formulation was added to 100 µL of human serum or mouse serum in a microcentrifuge tube. The resultant mixture was incubated at 37 °C for 120 min. To assess the radiochemical stability of the probes, a small aliquot (~ 0.5 µL) was taken out from the mixture in triplicate at 0 min, 30 min, 60 min and 120 min during incubation, and analyzed on a rad-TLC using 0.5:9.5 methanol: chloroform as a mobile phase using i-TLC to estimate the stability of [^18F]2 or [^18F]6 at different time points post-incubation. After Stability preparative processes initial i-TLC development was considered as 0 min.

Series [4] in a line: Radiochemical stability in isotonic NaCl solution (rad-TLC). The class given is physicochemical. Particulars: 37 °C. How it is done: as §1, §2
The nature of series [5]: Radiochemical stability in human serum (rad-TLC). The class given is in vitro ADME. Particulars: 37 °C. How it is done:
as §1, §2

For another series, the target named is T1, human GSK-3α (Homo sapiens, UniProt P49840).
T1 construct: purchased Promega Corporation, Madison, WI
Put plainly: GSK-3α kinase inhibition assay (ADP-Glo). In kind it is biochemical. From the text:
(§3) Phosphorylation of glycogen synthase kinase substrate was quantified using a luminescent ADP-Glo™ Kinase assay system (Promega Corporation, Madison, WI).

In another series the target is T2, human GSK-3β (Homo sapiens, UniProt P49841).
T2 construct: purchased Promega Corporation, Madison, WI
Nature of the series: GSK-3β kinase inhibition assay (ADP-Glo). The class given is biochemical.
From the text: as §3
(ADP-Glo first removes unused ATP, then detects ADP through luciferase.)

Details of series [6]: method as in PMID 33492962, doi:10.1002/ejoc.202201031. Particulars: FVB/NJ mice; cited from earlier work.
On the set-up of series [7]: method as in PMID 33492962, doi:10.1002/ejoc.202201031. Particulars: cited from earlier work.
The mark [8] stands for this setting: pH 7.4, Permeability coefficient, P, Average ± SD.

T2 sequence (P49841 whole entry): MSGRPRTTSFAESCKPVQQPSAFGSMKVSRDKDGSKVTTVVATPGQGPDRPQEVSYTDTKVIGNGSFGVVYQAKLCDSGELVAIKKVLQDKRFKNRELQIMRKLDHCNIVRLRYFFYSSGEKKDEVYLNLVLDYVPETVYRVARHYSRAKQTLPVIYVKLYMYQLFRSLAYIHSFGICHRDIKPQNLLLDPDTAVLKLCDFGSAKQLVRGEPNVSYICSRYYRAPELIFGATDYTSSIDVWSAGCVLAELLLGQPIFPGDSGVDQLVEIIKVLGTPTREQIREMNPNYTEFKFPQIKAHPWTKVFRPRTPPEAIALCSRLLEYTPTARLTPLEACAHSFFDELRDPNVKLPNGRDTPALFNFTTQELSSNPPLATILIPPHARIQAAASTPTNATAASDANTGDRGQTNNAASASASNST
T1 sequence (P49840 whole entry): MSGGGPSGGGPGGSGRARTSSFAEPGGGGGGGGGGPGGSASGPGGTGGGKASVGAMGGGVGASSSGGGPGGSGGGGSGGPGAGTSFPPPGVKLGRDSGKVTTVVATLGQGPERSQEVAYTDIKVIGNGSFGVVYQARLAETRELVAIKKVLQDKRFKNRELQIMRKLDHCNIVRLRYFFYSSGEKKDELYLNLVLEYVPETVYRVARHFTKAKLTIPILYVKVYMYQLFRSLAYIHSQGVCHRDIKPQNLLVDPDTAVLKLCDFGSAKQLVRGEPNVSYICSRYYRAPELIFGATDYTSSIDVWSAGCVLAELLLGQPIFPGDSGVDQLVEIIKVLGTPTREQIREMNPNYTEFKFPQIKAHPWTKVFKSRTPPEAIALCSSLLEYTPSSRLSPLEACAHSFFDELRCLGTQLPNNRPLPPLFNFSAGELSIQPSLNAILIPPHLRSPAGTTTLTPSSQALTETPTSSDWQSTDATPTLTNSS

As a reminder, the Papp is the rate of passage across a membrane or cell layer, normalised by area and donor concentration. `CC(C)NCC(O)COc1cccc2ccccc12` (centres unmarked) [Propranolol HCl, reference compound] yielded a Papp in series [1] (setting [8]) of 32 ± 1 ×10⁻⁶ cm/s.
By Ki is commonly meant the dissociation constant of the complex between target and ligand, obtained from inhibition or displacement. As to `COc1ccc(-c2ocnc2C(=O)NCCCc2ccc([18F])nc2)cc1Cl` [[^18F]OCM50], the Ki on GSK-3β was 0.28 nM. The “standardized uptake value (SUV)” value in series [2] is ~ 2.0.
On to `O=C(Nc1cnccc1-c1ccc(F)cc1)c1ccnc(NC(=O)C2CC2)c1` [Compound 2, 2-(cyclopropanecarboxamido)-N-(4-(4-fluorophenyl)pyridin-3-yl)isonicotinamide], for which the Papp was 31.6 ×10⁻⁶ cm/s in series [1] (pH 7.4, Average ± SD) and 36 ± 20 ×10⁻⁶ cm/s in series [1] (setting [8]). In addition, the “Permeability coefficient, P, Average ± SD” value in series [1] (pH 7.4) is 38 ± 20 (n = 3) 10^–6 cm/s.
Consider `O=C(Nc1cnccc1-c1ccc(OS(=O)(=O)[18F])cc1)c1ccnc(NC(=O)C2CC2)c1` [[^18F]6], for which the “Percentage of intact probe” value is 87.30 ± 8.99% in [3] (30 min); 81.17± 6.38% in series [3] (60 min); 67.01 ± 4.93% and 67.01 ± 6.38% in [3] (120 min); 100 ± 0.0% in series [4] (0 min); 100 ± 0.0% in [4] (30 min); 100 ± 0.0% in [4] (60 min). The “Percentage of intact probe” value in series [5] (30 min) is 92.46± 2.61% and 92.46 ± 2.6%; in series [5] (60 min), 80.13± 14.24%; in series [5] (120 min) it was 66.20 ± 6.38% and 66.20 ± 4.93%.
The IC50 is the point on the concentration scale where inhibition reaches its midpoint. Compound `O=C(Nc1cnccc1-c1ccc(OS(=O)(=O)F)cc1)c1ccnc(NC(=O)C2CC2)c1` [Compound 6, 4-(3-(2-(cyclopropanecarboxamido)isonicotinamido)pyridin-4-yl)phenyl sulfurofluoridate] yielded a Papp in [1] (pH 7.4) of 8.75 ± 3.9 ×10⁻⁶ cm/s. Moreover, the results for the IC50 against human GSK-3α and on human GSK-3β were 55.7 ± 4.89 nM and 44 ± 2.84 nM, respectively.
With `O=C(Nc1cnccc1-c1ccc([18F])nc1)c1ccnc(NC(=O)C2CC2)c1` [[^18F]CNBI], the brain uptake entry in series [6] is listed as “poor”. In series [7], the metabolic stability result is “moderate”.
